Test systems include HOP-62; SN12C; NCI/ADR-RES; OVCAR-8; EKVX; M14; MDA-N; OVCAR-5; SK-MEL-5; UACC-257; DU-145; HT-29; SK-MEL-2; RXF 393; 786-0; U-251; Hs-578T; SNB-19; SF-295; A549.
Holding throughout (assay): NCI tumour cell line growth inhibition, 48 h

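Five concentrations, 48 hours, 96-well plates. GI50: concentration for 50% inhibition of growth.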 Calls of active or inactive are those of the source. Rule as the data show it: active = GI50 up to about 1.1 µM and inactive = higher.

Turning to `O=C(/C=C/c1cccc(Br)c1)N1CCN(CCOC(c2ccccc2)c2ccccc2)CC1`, the GI50 in the assay on HOP-62 is > 100 µM (inactive); with SN12C, 31.7 µM (inactive); with NCI/ADR-RES, 35.6 µM (inactive); in the assay with OVCAR-8 it was 55.5 µM (inactive); with EKVX it was > 100 µM (inactive); in the assay on M14, 62.2 µM (inactive). Further, the GI50 is 41.4 µM (inactive) in the assay with MDA-N; > 100 µM (inactive) with OVCAR-5; 16 µM (inactive) in the assay with SK-MEL-5; 63.5 µM (inactive) with UACC-257; 37.5 µM (inactive) with DU-145; 21.6 µM (inactive) in the assay on HT-29. Also, the GI50 in the assay on SK-MEL-2 is 43.6 µM (inactive); with RXF 393, 35.7 µM (inactive); in the assay on 786-0 it was 40.1 µM (inactive); in the assay with U-251 it was 35.3 µM (inactive); in the assay with Hs-578T, > 100 µM (inactive); in the assay with SNB-19 it was > 100 µM (inactive). Moreover, the GI50 is 53.7 µM (inactive) with SF-295 and 43.2 µM (inactive) in the assay on A549.

Regarding `O=C1C=C(c2c(-c3ccccc3)[nH]c3ccccc23)C(=O)N1c1ccccc1`, the GI50 with HOP-62 is 0.135 µM (active); with SN12C it was 6.65 µM (inactive); with NCI/ADR-RES it was 8.45 µM (inactive); with OVCAR-8, 4.46 µM (inactive); with EKVX, 12.4 µM (inactive); in the assay with M14, 11.4 µM (inactive). The GI50 was 3.89 µM (inactive) with MDA-N; 14.8 µM (inactive) in the assay on OVCAR-5; 8.75 µM (inactive) in the assay with SK-MEL-5; 9.25 µM (inactive) in the assay with UACC-257; 3.52 µM (inactive) in the assay with DU-145; 7.18 µM (inactive) with HT-29. Also, the GI50 in the assay with SK-MEL-2 is 12.5 µM (inactive); with RXF 393, 3.8 µM (inactive); in the assay with 786-0, 8.65 µM (inactive); with U-251 it was 13.5 µM (inactive); with Hs-578T, 4.15 µM (inactive); with SNB-19 it was 21.9 µM (inactive). The results for the GI50 in the assay with SF-295 and in the assay on A549 were 10.6 µM (inactive) and 14.6 µM (inactive), respectively.

As to `C=CN1CCN(c2ccccc2)P1(=O)Oc1ccccc1` (stereo not given), the GI50 in the assay with HOP-62 was > 100 µM (inactive); with SN12C, > 100 µM (inactive); in the assay with NCI/ADR-RES, 55.2 µM (inactive); with OVCAR-8, 89.3 µM (inactive); with EKVX, 45 µM (inactive); in the assay with M14, 40.2 µM (inactive). Also, the GI50 in the assay on MDA-N is 63.4 µM (inactive); in the assay on OVCAR-5 it was > 100 µM (inactive); with SK-MEL-5, 87.7 µM (inactive); in the assay on UACC-257, > 100 µM (inactive); with DU-145, > 100 µM (inactive); in the assay with HT-29, 92.9 µM (inactive). Also, the GI50 in the assay on SK-MEL-2 is 54.6 µM (inactive); in the assay on RXF 393 it was 42.5 µM (inactive); with 786-0, > 100 µM (inactive); in the assay on U-251 it was > 100 µM (inactive); in the assay with Hs-578T, 33.7 µM (inactive); in the assay on SNB-19, > 100 µM (inactive). Moreover, the GI50 in the assay with SF-295 and with A549 was > 100 µM (inactive) throughout.

Consider `O=C1C=CC(=O)c2c1ccc1c3ccccc3n(CCCCCCCCn3c4ccccc4c4ccc5c(c43)C(=O)C=CC5=O)c21`, for which the GI50 in the assay with HOP-62, in the assay with SN12C, in the assay on NCI/ADR-RES, in the assay on OVCAR-8, in the assay on EKVX and with M14 was > 100 µM (inactive) throughout. The GI50 with MDA-N, with OVCAR-5, with SK-MEL-5, in the assay on UACC-257, with DU-145 and in the assay with HT-29 was > 100 µM (inactive) throughout. The GI50 was > 100 µM (inactive) with SK-MEL-2; > 100 µM (inactive) with RXF 393; > 100 µM (inactive) in the assay on 786-0; > 100 µM (inactive) with U-251; 30.8 µM (inactive) with Hs-578T; > 100 µM (inactive) in the assay with SNB-19. The GI50 with SF-295 and in the assay on A549 was > 100 µM (inactive) each time.

As for `CC1CC2OC(=N)C1(C#N)C2(C#N)C#N` (stereo not given), the GI50 in the assay on HOP-62 is 16.8 µM (inactive); in the assay on SN12C, 19.5 µM (inactive); in the assay on NCI/ADR-RES, 29.1 µM (inactive); in the assay on OVCAR-8, 25.1 µM (inactive); in the assay on EKVX, 16.6 µM (inactive); in the assay on M14, 29.6 µM (inactive). The GI50 is 16.3 µM (inactive) in the assay with MDA-N; 21.6 µM (inactive) in the assay on OVCAR-5; 10.4 µM (inactive) with SK-MEL-5; 18.8 µM (inactive) in the assay on UACC-257; 56.6 µM (inactive) in the assay on DU-145; 19.4 µM (inactive) in the assay on HT-29. For the same molecule, the GI50 is 20.3 µM (inactive) in the assay on SK-MEL-2; 16.1 µM (inactive) in the assay on RXF 393; 17.9 µM (inactive) in the assay on 786-0; 27.9 µM (inactive) in the assay with U-251; 33.8 µM (inactive) in the assay with Hs-578T; 34.8 µM (inactive) in the assay with SNB-19. For the same molecule, the GI50 with SF-295 is 79.1 µM (inactive); in the assay with A549, > 100 µM (inactive).

Take `COC(CC1(CCNc2ccccc2)C(=O)N(COCC[Si](C)(C)C)c2ccccc21)OC` (stereo not given): the GI50 with HOP-62 is 13.7 µM (inactive); in the assay with SN12C it was 23.2 µM (inactive); in the assay on NCI/ADR-RES, 17.1 µM (inactive); in the assay with OVCAR-8, 18.4 µM (inactive); with EKVX, 17.8 µM (inactive); in the assay on M14, 2.51 µM (inactive). Also, the GI50 in the assay on MDA-N was 24 µM (inactive); with OVCAR-5 it was 16.6 µM (inactive); with SK-MEL-5, 4.97 µM (inactive); with UACC-257, 11.7 µM (inactive); with DU-145, 23.6 µM (inactive); in the assay on HT-29, 16.4 µM (inactive). The GI50 is 15.3 µM (inactive) in the assay with SK-MEL-2; 12.5 µM (inactive) with RXF 393; 6.25 µM (inactive) with 786-0; 18.2 µM (inactive) with U-251; 18 µM (inactive) in the assay on Hs-578T; 15.5 µM (inactive) in the assay with SNB-19. The GI50 in the assay on SF-295 is 16.6 µM (inactive); with A549 it was 15.5 µM (inactive).

For the molecule `Nc1ccccc1N/C=C\C(=O)C(Cl)(Cl)Cl`, the GI50 with HOP-62 is 19.3 µM (inactive); in the assay with SN12C, 19 µM (inactive); in the assay with NCI/ADR-RES, 31 µM (inactive); with OVCAR-8, 29 µM (inactive); with EKVX, 15 µM (inactive); in the assay on M14, 14.7 µM (inactive). Moreover, the GI50 is 16.6 µM (inactive) in the assay on MDA-N; 20.1 µM (inactive) in the assay on OVCAR-5; 44 µM (inactive) in the assay on SK-MEL-5; 21.9 µM (inactive) in the assay on UACC-257; 26.7 µM (inactive) in the assay with DU-145; 18.9 µM (inactive) with HT-29. Also, the GI50 is 24.5 µM (inactive) in the assay on SK-MEL-2; 20.1 µM (inactive) in the assay with RXF 393; 15 µM (inactive) in the assay on 786-0; 25.6 µM (inactive) with U-251; 48.8 µM (inactive) in the assay on Hs-578T; 34.1 µM (inactive) in the assay with SNB-19. The values for the GI50 in the assay with SF-295 and in the assay on A549 were 23.4 µM (inactive) and 67.3 µM (inactive), respectively.

For the origin of these results see ChEMBL document CHEMBL1201862, “PubChem BioAssay data set” (2004).
